From US8338587B2, “Compounds” (AstraZeneca AB, priority 2009, dated 2012) come the findings set out here.

The target in the assay is T1, recombinant human GR (Homo sapiens, UniProt P04150).
T1 construct: purchased Panvera/Invitrogen P2812 (kit P2893)
T1 sequence (P04150 1-777): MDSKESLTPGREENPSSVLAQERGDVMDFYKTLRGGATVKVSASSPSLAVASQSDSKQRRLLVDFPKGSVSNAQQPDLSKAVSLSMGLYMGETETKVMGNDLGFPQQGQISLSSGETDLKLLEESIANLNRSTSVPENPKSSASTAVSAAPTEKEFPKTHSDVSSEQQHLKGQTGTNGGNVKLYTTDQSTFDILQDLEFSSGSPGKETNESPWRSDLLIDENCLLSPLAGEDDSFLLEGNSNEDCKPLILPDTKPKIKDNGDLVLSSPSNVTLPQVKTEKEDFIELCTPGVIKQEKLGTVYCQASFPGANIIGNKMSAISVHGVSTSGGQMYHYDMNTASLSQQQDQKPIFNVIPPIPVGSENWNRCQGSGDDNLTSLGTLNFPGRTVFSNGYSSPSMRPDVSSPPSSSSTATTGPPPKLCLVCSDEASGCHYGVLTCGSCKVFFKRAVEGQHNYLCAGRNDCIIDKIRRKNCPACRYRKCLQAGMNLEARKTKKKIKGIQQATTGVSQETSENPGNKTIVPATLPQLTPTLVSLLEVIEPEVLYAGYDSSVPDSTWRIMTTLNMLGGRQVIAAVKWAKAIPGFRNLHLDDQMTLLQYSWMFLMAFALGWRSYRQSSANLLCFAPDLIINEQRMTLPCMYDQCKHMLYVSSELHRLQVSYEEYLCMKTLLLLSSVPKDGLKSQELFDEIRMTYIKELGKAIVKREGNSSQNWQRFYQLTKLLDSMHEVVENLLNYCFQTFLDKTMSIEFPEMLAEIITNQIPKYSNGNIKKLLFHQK
Kind of assay: Human Glucocorticoid Receptor (GR) Assay (fluorescence polarization competition, Panvera/Invitrogen kit). The following applies: GS Red Fluoromone tracer, 2 hours at room temperature, 100% control 10 μM Dexamethasone, read-out: Inhibition of GR binding, IC50. The method, then:
Human Glucocorticoid Receptor (GR) Assay The assay is based on a commercial kit from Panvera/Invitrogen (Part number P2893). The assay technology is fluorescence polarization. The kit utilises recombinant human GR (Panvera, Part number P2812), a Fluoromone™ labelled tracer (GS Red, Panvera, Part number P2894) and a Stabilizing Peptide 10× (Panvera, Part number P2815). The GR and Stabilizing Peptide reagents are stored at −70° C. while the GS Red is stored at −20° C. Also included in the kit are 1M DTT (Panvera, Part number P2325, stored at −20° C.) and GR Screening buffer 10× (Panvera, Part number P2814, stored at −70° C. initially but once thawed stored at room temperature). Avoid repeated freeze/thaws for all reagents. The GR Screening buffer 10× comprises 100 mM potassium phosphate, 200 mM sodium molybdate, 1 mM EDTA and 20% DMSO. Test compounds (1 μL) and controls (1 μL) in 100% DMSO were added to black is polystyrene 384-well plates (Greiner low volume black flat-bottom, part number 784076). 0% control was 100% DMSO and 100% control was 10 μM Dexamethasone. Background solution (8 μL; assay buffer 10×, Stabilizing Peptide, DTT and ice cold MQ water) was added to the background wells. GS Red solution (7 μL; assay buffer 10×, Stabilizing Peptide, DTT, GS Red and ice cold water) was added to all wells except background wells. GR solution (7 μL; assay buffer 10×, Stabilizing Peptide, DTT, GR and ice cold water) was added to all wells. The plate was sealed and incubated in a dark at room temperature for 2 hours. The plate was read in an Analyst plate reader (LJL Biosystems/Molecular Devices Corporation) or other similar plate reader capable of recording fluorescence polarization (excitation wavelength 530 nm, emission wavelength 590 nm and a dichroic mirror at 561 nm).
In general terms: In fluorescence polarisation assays a small probe gives low polarisation when free and higher when bound to something large.
As a reminder, the IC50 is the concentration at which inhibition is half-maximal. On to `COCC(=O)O[C@]1(C(=O)SCF)CC[C@H]2[C@@H]3C[C@H](C)C4=Cc5c(cnn5-c5ccc(F)nc5)C[C@]4(C)[C@H]3[C@@H](O)C[C@@]21C` [Example 8, (1R,3aS,3bS,5S,10aR,10bS,11S,12aS)-1-{[(Fluoromethyl)sulfanyl]carbonyl}-7-(6-fluoropyridin-3-yl)-11-hydroxy-5,10a,12a-trimethyl-1,2,3,3a,3b,4,5,7,10,10a,10b,11,12,12a-tetradecahydrocyclopenta[5,6]naphtho[1,2-f]indazol-1-yl methoxyacetate], for which the IC50 was 0.93 nM.

Turning to `C[C@H]1C[C@@H]2[C@H]([C@@H](O)C[C@@]3(C)[C@H]2CC[C@]3(OC(=O)c2cocn2)C(=O)SCF)[C@@]2(C)Cc3cnn(-c4ccc(F)nc4)c3C=C12` [Example 9, (1R,3aS,3bS,5S,10aR,10bS,11S,12aS)-1-{[(Fluoromethyl)sulfanyl]carbonyl}-7-(6-fluoropyridin-3-yl)-11-hydroxy-5,10a,12a-trimethyl-1,2,3,3a,3b,4,5,7,10,10a,10b,11,12,12a-tetradecahydrocyclopenta[5,6]naphtho[1,2-f]indazol-1-yl 1,3-oxazole-4-carboxylate], the IC50 was determined as 1.5 nM.

In the case of `C[C@H]1C[C@@H]2[C@H]([C@@H](O)C[C@@]3(C)[C@H]2CC[C@]3(OC(=O)c2cocn2)C(=O)SCC#N)[C@@]2(C)Cc3cnn(-c4ccc(F)nc4)c3C=C12` [Example 10, (1R,3aS,3bS,5S,10aR,10bS,11S,12aS)-1-{[(Cyanomethyl)sulfanyl]carbonyl}-7-(6-fluoropyridin-3-yl)-11-hydroxy-5,10a,12a-trimethyl-1,2,3,3a,3b,4,5,7,10,10a,10b,11,12,12a-tetradecahydrocyclopenta[5,6]naphtho[1,2-f]indazol-1-yl 1,3-oxazole-4-carboxylate], the IC50 is 0.89 nM.

As to `C[C@H]1C[C@@H]2[C@H]([C@@H](O)C[C@@]3(C)[C@H]2CC[C@]3(OC(=O)C2CC2)C(=O)SCC#N)[C@@]2(C)Cc3cnn(-c4ccc(F)nc4)c3C=C12` [Example 11, (1R,3aS,3bS,5S,10aR,10bS,11S,12aS)-1-{[(Cyanomethyl)sulfanyl]carbonyl}-7-(6-fluoropyridin-3-yl)-11-hydroxy-5,10a,12a-trimethyl-1,2,3,3a,3b,4,5,7,10,10a,10b,11,12,12a-tetradecahydrocyclopenta[5,6]naphtho[1,2-f]indazol-1-yl cyclopropanecarboxylate], the IC50 turned out to be 2.1 nM.

With `C[C@]12Cc3cnn(-c4ccc(F)nc4)c3C=C1CC[C@H]1[C@@H]3CC[C@](OC(=O)[C@H]4CCCO4)(C(=O)SCC#N)[C@@]3(C)C[C@H](O)[C@@]12F` [Example 12, (1R,3aS,3bS,10aS,10bR,11S,12aS)-1-{[(Cyanomethyl)sulfanyl]carbonyl}-10b-fluoro-7-(6-fluoropyridin-3-yl)-11-hydroxy-10a,12a-dimethyl-1,2,3,3a,3b,4,5,7,10, 10a,10b,11,12,12a-tetradecahydrocyclopenta[5,6]naphtho[1,2-f]indazol-1-yl (2R)-tetrahydrofuran-2-carboxylate], the IC50 worked out at 1 nM.

In the case of `C[C@]12Cc3cnn(-c4ccc(F)nc4)c3C=C1CC[C@H]1[C@@H]3CC[C@](OC(=O)[C@H]4CCCO4)(C(=O)SCF)[C@@]3(C)C[C@H](O)[C@@]12F` [Example 13, (1R,3aS,3bS,10aS,10bR,11S,12aS)-10b-Fluoro-1-{[(fluoromethyl)sulfanyl]carbonyl}-7-(6-fluoropyridin-3-yl)-11-hydroxy-10a,12a-dimethyl-1,2,3,3a,3b,4,5,7,10,10a,10b,11,12,12a-tetradecahydrocyclopenta[5,6]naphtho[1,2-f]indazol-1-yl (2R)-tetrahydrofuran-2-carboxylate], the IC50 came to 0.98 nM.

On to `C[C@]12Cc3cnn(-c4ccc(F)nc4)c3C=C1CC[C@H]1[C@@H]3CC[C@](OC(=O)[C@H]4CCCO4)(C(=O)SCCO)[C@@]3(C)C[C@H](O)[C@@]12F` [Example 14, (1R,3aS,3bS,10aS,10bR,11S,12aS)-10b-Fluoro-7-(6-fluoropyridin-3-yl)-11-hydroxy-1-{[(2-hydroxyethyl)sulfanyl]carbonyl}-10a,12a-dimethyl-1,2,3,3a,3b,4,5,7, 10, 10a, 10,11,12,12a-tetradecahydrocyclopenta[5,6]naphtho[1,2-f]indazol-1-yl (2R)-tetrahydrofuran-2-carboxylate], for which the IC50 came out at 0.65 nM.

For `C[C@]12Cc3cnn(-c4ccc(F)nc4)c3C=C1CC[C@H]1[C@@H]3CC[C@](OC(=O)[C@@H]4CCCO4)(C(=O)SCC#N)[C@@]3(C)C[C@H](O)[C@@]12F` [Example 17, (1R,3aS,3bS,10aS,10bR,11S,12aS)-1-{[(Cyanomethyl)sulfanyl]carbonyl}-10b-fluoro-7-(6-fluoropyridin-3-yl)-11-hydroxy-10a,12a-dimethyl-1,2,3,3a,3b,4,5,7,10,10a,10b,11,12,12a-tetradecahydrocyclopenta[5,6]naphtho[1,2-f]indazol-1-yl (2S)-tetrahydrofuran-2-carboxylate], the half-inhibitory concentration (IC50) was found to be 0.55 nM.

As to `C[C@]12Cc3cnn(-c4ccc(F)nc4)c3C=C1CC[C@H]1[C@@H]3CC[C@](OC(=O)C4CC4)(C(=O)OCC#N)[C@@]3(C)C[C@H](O)[C@@]12F` [Example 19, (1R,3aS,3bS,10aS,10bR,11S,12aS)-1-{[Cyanomethyloxy]carbonyl}-10b-fluoro-7-(6-fluoropyridin-3-yl)-11-hydroxy-10a,12a-dimethyl-1,2,3,3a,3b,4,5,7,10,10a,10b,11,12,12a-tetradecahydrocyclopenta[5,6]naphtho[1,2-f]indazol-1-yl cyclopropanecarboxylate], the IC50 is 1.4 nM.

On to `C[C@H]1C[C@@H]2[C@H]([C@@H](O)C[C@@]3(C)[C@H]2CC[C@]3(OC(=O)c2ccco2)C(=O)SCF)[C@@]2(C)Cc3cnn(-c4ccc(F)nc4)c3C=C12` [Example 21, (1R,3aS,3bS,5S,10aR,10bS,11S,12aS)-1-{[(Fluoromethyl)sulfanyl]carbonyl}-7-(6-fluoropyridin-3-yl)-11-hydroxy-5,10a,12a-trimethyl-1,2,3,3a,3b,4,5,7,10,10a,10b,11,12,12a-tetradecahydrocyclopenta[5,6]naphtho[1,2-f]indazol-1-yl furan-2-carboxylate], for which the half-inhibitory concentration (IC50) came to 2.8 nM.

As for `C[C@H]1C[C@@H]2[C@H]([C@@H](O)C[C@@]3(C)[C@H]2CC[C@]3(OC(=O)c2ccco2)C(=O)SCC#N)[C@@]2(C)Cc3cnn(-c4ccc(F)nc4)c3C=C12` [Example 22, (1R,3aS,3bS,5S,10aR,10bS,11S,12aS)-1-{[(Cyanomethyl)sulfanyl]carbonyl}-7-(6-fluoropyridin-3-yl)-11-hydroxy-5,10a,12a-trimethyl-1,2,3,3a,3b,4,5,7,10,10a,10b,11,12,12a-tetradecahydrocyclopenta[5,6]naphtho[1,2-f]indazol-1-yl furan-2-carboxylate], the concentration for half-maximal inhibition (IC50) was 1.7 nM.

`CCC(=O)O[C@]1(C(=O)SCC#N)CC[C@H]2[C@@H]3C[C@H](C)C4=Cc5c(cnn5-c5ccc(F)nc5)C[C@]4(C)[C@H]3[C@@H](O)C[C@@]21C` [Example 23, (1R,3aS,3bS,5S,10aR,10bS,11S,12aS)-1-{[(Cyanomethyl)sulfanyl]carbonyl}-7-(6-fluoropyridin-3-yl)-11-hydroxy-5,10a,12a-trimethyl-1,2,3,3a,3b,4,5,7,10,10a,10b,11,12,12a-tetradecahydrocyclopenta[5,6]naphtho[1,2-f]indazol-1-yl propanoate]: the IC50 was found to be 1 nM.
